According to paper PMC3048208 (British Journal of Cancer, 2011):
Where a name gives a salt, the structure may show the parent alone. Marks after values point to notes of the source that are not given here.

Test system: patients with advanced solid tumours
Assay: Phase I safety: DLT and adverse events (CTCAE v3.0)
[1] = Grades 3/4, level 5.5, 60 mg, 7 patients
[2] = Grades 3/4, level 6, 70 mg, 6 patients
[3] = Grades 3/4, level 7, 90 mg, 2 patients
[4] = all 38 treated patients, all grades
[5] = dose level 3, dose 20, 5 days every 2 weeks
[6] = dose level 6, dose 70, 5 days every 2 weeks, re-opened for expansion

With `CCCCc1nc2cc(/C=C/C(=O)NO)ccc2n1CCN(CC)CC` [SB939, 3-[2-butyl-1-(2-diethylaminoethyl)-1H-benzoimidazol-5-yl]-N-hydroxyacrylami-hydrochloride] the “AST (raised), no. of patients” value [1] was 0, the “Abdominal pain, no. of patients” value [1] was 0 and the “Alkaline phophatase (raised), no. of patients” value [1] was 0. For the same compound, the “Altered taste, no. of patients” value [1] was 0, the “Anaemia, no. of patients” value [1] was 0 and the “Anorexia, no. of patients” value [1] was 0. For the same compound, the “Bilirubin (raised), no. of patients” value [1] was 0, the “CPK, no. of patients” value [1] was 0 and the “Cardiac arrythmia other, no. of patients” value [1] was 0. The “Cardiac dysfunction, no. of patients” value [1] was 0, the “Cardiac ischaemia, no. of patients” value [1] was 0 and the “Constipation, no. of patients” value [1] was 0. For the same compound, the “Creatinine (raised), no. of patients” value [1] was 0, the “Diarrhoea, no. of patients” value [1] was 1 and the “Fatigue, no. of patients” value [1] was 1. The “Leukopenia, no. of patients” value [1] was 1, the “Lymphopenia, no. of patients” value [1] was 3 and the “Mucositis, no. of patients” value [1] was 0. The “Myositis, no. of patients” value [1] was 0, the “Nausea, no. of patients” value [1] was 0 and the “Neutropenia, no. of patients” value [1] was 0. The “QT prolongation, no. of patients” value [1] was 0, the “Supra ventricular arrythmia, no. of patients” value [1] was 0 and the “Syncope, no. of patients” value [1] was 0. The “Thrombocytopenia, no. of patients” value [1] was 0, the “Ventricular arrythmias (PVCs), no. of patients” value [1] was 0 and the “Ventricular bigemini, no. of patients” value [1] was 0. The “Vomiting, no. of patients” value [1] was 0, the “ALT (raised), no. of patients” value [2] was 0 and the “AST (raised), no. of patients” value [2] was 0. For the same compound, the “Abdominal pain, no. of patients” value [2] was 0, the “Alkaline phophatase (raised), no. of patients” value [2] was 0 and the “Altered taste, no. of patients” value [2] was 0. The “Anaemia, no. of patients” value [2] was 0, the “Anorexia, no. of patients” value [2] was 0 and the “Bilirubin (raised), no. of patients” value [2] was 0. For the same compound, the “CPK, no. of patients” value [2] was 0, the “Cardiac arrythmia other, no. of patients” value [2] was 0 and the “Cardiac dysfunction, no. of patients” value [2] was 0. For the same compound, the “Cardiac ischaemia, no. of patients” value [2] was 0, the “Constipation, no. of patients” value [2] was 0 and the “Creatinine (raised), no. of patients” value [2] was 0. The “Diarrhoea, no. of patients” value [2] was 0, the “Fatigue, no. of patients” value [2] was 2 and the “Leukopenia, no. of patients” value [2] was 1. The “Lymphopenia, no. of patients” value [2] was 3, the “Mucositis, no. of patients” value [2] was 0 and the “Myositis, no. of patients” value [2] was 0. The “Nausea, no. of patients” value [2] was 0, the “Neutropenia, no. of patients” value [2] was 1 and the “QT prolongation, no. of patients” value [2] was 0. For the same compound, the “Supra ventricular arrythmia, no. of patients” value [2] was 0, the “Syncope, no. of patients” value [2] was 0 and the “Thrombocytopenia, no. of patients” value [2] was 1. The “Ventricular arrythmias (PVCs), no. of patients” value [2] was 0, the “Ventricular bigemini, no. of patients” value [2] was 0 and the “Vomiting, no. of patients” value [2] was 0. The “ALT (raised), no. of patients” value [3] was 0, the “AST (raised), no. of patients” value [3] was 0 and the “Abdominal pain, no. of patients” value [3] was 0. The “Alkaline phophatase (raised), no. of patients” value [3] was 0, the “Altered taste, no. of patients” value [3] was 0 and the “Anaemia, no. of patients” value [3] was 0. The “Anorexia, no. of patients” value [3] was 0, the “Bilirubin (raised), no. of patients” value [3] was 0 and the “CPK, no. of patients” value [3] was 0. The “Cardiac arrythmia other, no. of patients” value [3] was 0, the “Cardiac dysfunction, no. of patients” value [3] was 0 and the “Cardiac ischaemia, no. of patients” value [3] was 0. The “Constipation, no. of patients” value [3] was 0, the “Creatinine (raised), no. of patients” value [3] was 0 and the “Diarrhoea, no. of patients” value [3] was 0. The “Fatigue, no. of patients” value [3] was 1, the “Leukopenia, no. of patients” value [3] was 0 and the “Lymphopenia, no. of patients” value [3] was 0. For the same compound, the “Mucositis, no. of patients” value [3] was 0, the “Myositis, no. of patients” value [3] was 0 and the “Nausea, no. of patients” value [3] was 0. For the same compound, the “Neutropenia, no. of patients” value [3] was 0, the “QT prolongation, no. of patients” value [3] was 0 and the “Supra ventricular arrythmia, no. of patients” value [3] was 0. For the same compound, the “Syncope, no. of patients” value [3] was 0, the “Thrombocytopenia, no. of patients” value [3] was 0 and the “Ventricular arrythmias (PVCs), no. of patients” value [3] was 0. The “Ventricular bigemini, no. of patients” value [3] was 0, the “Vomiting, no. of patients” value [3] was 1 and the “Dose omissions, no. of patients” value (RPTD 60 mg, n=7, alteration of liver function tests) was “two”. The “Dose reductions, no. of patients” value (RPTD 60 mg, n=7, transaminase rise and QTc prolongation) was “two”, the “Grade 3 diarrhea, no. of patients” value (all 38 treated patients) was “one” and the “Grade 3 fatigue, no. of patients” value (all 38 treated patients) was 4. For the same compound, the “Grade 3 myositis, no. of patients” value (all 38 treated patients) was “one”, the “Grade 3 syncope, no. of patients” value (all 38 treated patients) was “one” and the “Grade 3 vomiting, no. of patients” value (all 38 treated patients) was “one”. For the same compound, the “Anorexia, related AE, frequency” value [4] was 29%, the “Diarrhoea, related AE, frequency” value [4] was 18% and the “Fatigue, related AE, frequency” value [4] was 53%. The “Nausea, related AE, frequency” value [4] was 39%, the “Vomiting, related AE, frequency” value [4] was 29% and the “Grade 2 QTc prolongation, no. of patients” value (all dose levels) was “four”. The “Grade 3 QTc elevations” value (all dose levels) was “none were grade 3”, the “No. of patients with DLT/total no. of patients treated” value (dose level 1, dose 10, 3 days every 2 weeks) was 0/3 and the “No. of patients with DLT/total no. of patients treated” value (dose level 2, dose 10, 5 days every 2 weeks, grade 3 bilirubin subsequently declared not drug related) was 1/6 ^a. For the same compound, the DLT [5] was “Grade 3 myositis”, the “No. of patients with DLT/total no. of patients treated” value [5] was 1/6 and the “No. of patients with DLT/total no. of patients treated” value (dose level 4, dose 30, 5 days every 2 weeks) was 0/4. For the same compound, the “No. of patients with DLT/total no. of patients treated” value (dose level 5, dose 50, 5 days every 2 weeks) was 0/4, the DLT (dose level 5.5, dose 60, 5 days every 2 weeks, not clear if entirely related to drug) was “Grade 3 ALT ^d” and the “No. of patients with DLT/total no. of patients treated” value (dose level 6, dose 70, 5 days every 2 weeks, escalation phase) was 0/3. The DLT [6] was “Grade 4 platelets Grade 3 fatigue”, the “No. of patients with DLT/total no. of patients treated” value [6] was 3/3 and the DLT (dose level 7, dose 90, 5 days every 2 weeks) was “Grade 3 fatigue Grade 3 vomiting”. For the same compound, the “No. of patients with DLT/total no. of patients treated” value (dose level 7, dose 90, 5 days every 2 weeks, neither patient completed a full cycle) was 1/2 ^b, the “Grade 2 QTc prolongation, no. of patients” value (dose level of 60 mg or higher) was “three” and the “Granulocytopenia, patients” value (dose levels ⩽50 mg) was 26%. The “Lymphopenia, patients” value (dose levels ⩽50 mg) was 57%, the “Granulocytopenia, patients” value (dose ⩾60 mg) was 60% and the “Lymphopenia, patients” value (dose ⩾60 mg) was 80%. For the same compound, the “Thrombocytopenia, patients” value (dose ⩾60 mg) was 87%, the “Anaemia, no. of patients” value (grade 1) was 25 and the “Anaemia, no. of patients” value (grade 2) was 10. For the same compound, the “Anaemia, no. of patients” value (grade 3) was 1, the “Anaemia on study, no. of patients” value (of 38 patients, any grade) was “Thirty-six” and the “Maximum QTc” value (one patient, Day 1 cycle 7, 10 h after dose, unclear if drug related) was 475 ms. The “LVEF during periods of arrhythmia” value (one patient, cycle 7, baseline 55%, unclear if drug related) was 20–39%, the “Recommended phase II dose (RPTD)” value (oral, 5 consecutive days every 2 weeks) was 60 mg and the “Maximal administered dose (MAD)” value (oral, 5 days every 2 weeks) was 90 mg. For the same compound, the “Grade 3 CPK elevation, no. of patients” value (patient with myositis) was “one”.
